Converted amounts (≈) assume the structure as drawn. Like-named read-outs stand apart in the source and are kept apart here.
Columns and labels:
Type in all cases: cell-based
P. aeruginosa ATCC-10145 = assay: MIC against P. aeruginosa ATCC-10145 by the plate diluted method; conditions: Pseudomonas aeruginosa, ATCC10145; P. aeruginosa ATCC-10145; 1×10^6 cells/ml; read-out: MIC
Description: (§1) In order to investigate the in vitro activity of the test compounds against various bacteria, the minimal inhibitory concentration (MIC) values were determined by the plate diluted method (See CHEMOTHERAPY, 22, 1126-1128, 1974.)
(§2) Each strain was adjusted to 1×10^6 cells/ml (O.D. 600 mμ, 0.07 to 0.16).

S. marcescens IFO 12648 = assay: MIC against S. marcescens IFO 12648 by the plate diluted method; conditions: Serratia marcescens, IFO12648; S. marcescens IFO 12648; 1×10^6 cells/ml; read-out: MIC
Description: as §1, §2

K. pneumoniae NCTC-9632 = assay: MIC against K. pneumoniae NCTC-9632 by the plate diluted method; conditions: Klebsiella pneumoniae, NCTC9632; K. pneumoniae NCTC-9632; 1×10^6 cells/ml; read-out: MIC
Description: as §1, §2

P. aeruginosa E-2 = assay: MIC against P. aeruginosa E-2 by the plate diluted method; conditions: Pseudomonas aeruginosa, E2; P. aeruginosa E-2; 1×10^6 cells/ml; read-out: MIC
Description: as §1, §2

A. calcoaceticus Ac-54 = assay: MIC against A. calcoaceticus Ac-54 by the plate diluted method; conditions: Acinetobacter calcoaceticus, AC54; A. calcoaceticus Ac-54; 1×10^6 cells/ml; read-out: MIC
Description: as §1, §2

S. aureaus FDA-209P = assay: MIC against S. aureaus FDA-209P by the plate diluted method; conditions: Staphylococcus aureus, FDA209P
Description: as §1, §2

E. coli No. 29 = assay: MIC against E. coli No. 29 by the plate diluted method; conditions: Escherichia coli, 1×10^6 cells/ml
Description: as §1, §2

M. moganii IIDkono = assay: MIC against M. moganii IIDkono by the plate diluted method
Description: as §1, §2

[1] = S. aureaus FDA-209P, 1×10^6 cells/ml, read-out: MIC
[2] = M. moganii IIDkono, 1×10^6 cells/ml, read-out: MIC

SMILES | MIC (P. aeruginosa ATCC-10145) [µg/mL] | MIC (S. marcescens IFO 12648) [µg/mL] | MIC (K. pneumoniae NCTC-9632) [µg/mL] | MIC (P. aeruginosa E-2) [µg/mL] | MIC (A. calcoaceticus Ac-54) [µg/mL] | MIC (S. aureaus FDA-209P; [1]) [µg/mL] | MIC (E. coli No. 29) [µg/mL] | MIC (M. moganii IIDkono) [µg/mL] | MIC (M. moganii IIDkono; [2]) [µg/mL] | MIC (S. aureaus FDA-209P) [µg/mL]
Cc1nnc(SCC2=C(C(=O)O)N3C(=O)[C@@H](NC(=O)/C(=N\OCc4cc(=O)c(O)cn4O)c4csc(N)n4)[C@H]3CS2)s1 [No. 1, (6S,7S)-7-[(Z)-2-(2-Aminothiazol-4-yl)-2-(1,5-dihydroxy-4-pyridone-2-ylmethoxyimino)acetamide]-3-(2-methyl-1,3,4-thiadiazol-5-yl)thiomethyl-isocephem-4-carboxylic acid] | 0.1 (≈ 0.153 µM) | 0.024 (≈ 0.0368 µM) | 0.012 (≈ 0.0184 µM) | 0.2 (≈ 0.306 µM) | 0.1 (≈ 0.153 µM) | 25 (≈ 38.3 µM) | 0.024 (≈ 0.0368 µM) | 0.05 (≈ 0.0766 µM) |  | 
Nc1nc(/C(=N/OCc2cc(=O)c(O)cn2O)C(=O)N[C@@H]2C(=O)N3C(C(=O)O)=C(CSc4nncs4)SC[C@H]23)cs1 [No. 2, (6S,7S)-7-[(Z)-2-(2-Aminothiazol-4-yl)-2-(1,5-dihydroxy-4-pyridone-2-ylmethoxyimino)acetamide]-3-(1,3,4-thiadiazol-5-yl)thiomethyl-isocephem-4-carboxylic acid] | 0.05 (≈ 0.0783 µM) | 0.05 (≈ 0.0783 µM) | ≤ 0.006 | 0.05 (≈ 0.0783 µM) | 0.1 (≈ 0.157 µM) | 12.5 (≈ 19.6 µM) | 0.024 (≈ 0.0376 µM) |  | 0.1 (≈ 0.157 µM) | 
CC(C)(O/N=C(\C(=O)N[C@@H]1C(=O)N2C(C(=O)[O-])=C(CSc3cc[n+](CC(=O)c4ccc(O)c(O)c4)cc3)SC[C@H]12)c1csc(N)n1)C(=O)O [No. 3, (6S,7S)-7-[(Z)-2-(2-aminothiazol-4-yl)-2-(1-carboxy-1-methylethoxy)iminoacetamide]-3-{[1-[2-(3,4-dihydroxyphenyl)-2-oxo]ethyl]-4-pyridinio}thiomethylisocephem-4-carboxylate] | 0.05 (≈ 0.0686 µM) | 0.024 (≈ 0.0329 µM) | ≤ 0.006 | 0.05 (≈ 0.0686 µM) | 0.1 (≈ 0.137 µM) | 0.78 (≈ 1.07 µM) | ≤ 0.006 |  | 0.024 (≈ 0.0329 µM) | 
CC(C)(O/N=C(\C(=O)N[C@@H]1C(=O)N2C(C(=O)[O-])=C(CSc3cc[n+](CC(=O)NNC(=O)c4ccc(O)c(O)c4)cc3)SC[C@H]12)c1csc(N)n1)C(=O)O [No. 4] | 0.1 (≈ 0.127 µM) | 0.024 (≈ 0.0305 µM) | ≤ 0.006 | 0.1 (≈ 0.127 µM) | 0.2 (≈ 0.254 µM) |  | 0.012 (≈ 0.0153 µM) |  | 0.024 (≈ 0.0305 µM) | 3.13 (≈ 3.98 µM)
Cc1nnc(SCC2=C(C(=O)O)N3C(=O)[C@@H](NC(=O)/C(=N\OCc4ccc(O)c(O)c4)c4csc(N)n4)[C@H]3CS2)s1 [No. 5, (6S,7S)-7-[(Z)-2-(2-aminothiazol-4-yl)-2-(3,4-dihydroxyphenylmethoxyimino)]acetamide-3-(2-methyl-1,3,4-thiadiazol-5-ylthiomethyl)isocephem-4-carboxylic acid] | 0.39 (≈ 0.613 µM) | 0.05 (≈ 0.0786 µM) | 0.012 (≈ 0.0189 µM) | 0.39 (≈ 0.613 µM) | 0.39 (≈ 0.613 µM) |  | 0.012 (≈ 0.0189 µM) |  | 0.05 (≈ 0.0786 µM) | 1.56 (≈ 2.45 µM)
Cc1nnc(SCC2=C(C(=O)O)N3C(=O)[C@@H](NC(=O)/C(=N\OC(C(=O)O)c4ccc(O)c(O)c4)c4csc(N)n4)[C@H]3CS2)s1 (stereo partly drawn) [No. 6, (6S,7S)-7-{(Z)-2-(2-aminothiazol-4-yl)-2-[carboxy(3,4-dihydroxyphenol)methoxyimino]}acetamide-3-(2-methyl-1,3,4-thiadiazol-5-ylthiomethyl)isocephem-4-carboxylic acid] | 0.2 (≈ 0.294 µM) | 0.012 (≈ 0.0177 µM) | ≤ 0.006 | 0.39 (≈ 0.574 µM) | 0.2 (≈ 0.294 µM) |  | 0.012 (≈ 0.0177 µM) |  | 0.024 (≈ 0.0353 µM) | 3.13 (≈ 4.6 µM)
CC(C)(O/N=C(\C(=O)N[C@@H]1C(=O)N2C(C(=O)[O-])=C(CSc3cc[n+](Cc4cc(=O)c(O)c[nH]4)cc3)SC[C@H]12)c1csc(N)n1)C(=O)O [No. 7, (6S,7S)-7-[(Z)-2-(2-aminothiazol-4-yl)-2-(1-carboxy-1-methylethoxy)imino]acetamide-3-[(5-hydroxy-4-pyridone-2-yl)methyl-4-pyridinio]thiomethylisocephem-4-carboxylate] | 0.1 (≈ 0.142 µM) | 0.012 (≈ 0.0171 µM) | 0.012 (≈ 0.0171 µM) | 0.1 (≈ 0.142 µM) | 0.2 (≈ 0.285 µM) |  | 0.012 (≈ 0.0171 µM) |  | 0.024 (≈ 0.0342 µM) | 3.13 (≈ 4.46 µM)
Nc1nc(/C(=N/OCC(=O)O)C(=O)N[C@@H]2C(=O)N3C(C(=O)[O-])=C(CSc4cc[n+](CC(=O)c5ccc(O)c(O)c5)cc4)OC[C@H]23)cs1 [No. 8, (6S,7S)-7-[(Z)-2-(2-aminothiazol-4-yl)-2-(1-carboxymethoxy)iminoacetamide]-3 {[1-[2-(3,4-dihydroxyphenyl)-2-oxo]ethyl]-4-pyridinio}thiomethyl-Δ^3 -O-2-isocephem-4-carboxylate] | 0.05 (≈ 0.073 µM) | 0.024 (≈ 0.0351 µM) | ≤ 0.006 | 0.1 (≈ 0.146 µM) | 0.05 (≈ 0.073 µM) |  | ≤ 0.006 |  | 0.024 (≈ 0.0351 µM) | 1.56 (≈ 2.28 µM)
Nc1nc(/C(=N/OCc2cc(=O)c(O)cn2O)C(=O)N[C@@H]2C(=O)N3C(C(=O)O)=C(CSc4nnnn4CC(=O)O)SC[C@H]23)cs1 [No. 9, (6S,7S)-7-[(Z)-2-(2-aminothiazol-4-yl)-2-(1,5-dihydroxy-4-pyridone-2-ylmethoxyimino)acetamide]-3-(1-carboxymethyl-1H-tetrazole-5-ylthiomethyl)isocephem-4-carboxylic acid] | 0.05 (≈ 0.0735 µM) | 0.012 (≈ 0.0176 µM) | ≤ 0.006 | 0.05 (≈ 0.0735 µM) | 0.012 (≈ 0.0176 µM) | 100 (≈ 147 µM) | 0.012 (≈ 0.0176 µM) |  | 0.024 (≈ 0.0353 µM) | 
Nc1nc(/C(=N/OCc2cc(=O)c(O)cn2O)C(=O)N[C@@H]2C(=O)N3C(C(=O)O)=C(CSc4nnc(N)s4)SC[C@H]23)cs1 [No. 10, (6S,7S)-7-[(Z)-2-(2-aminothiazol-4-yl)-2-(1,5-dihydroxy-4-pyridone-2-ylmethoxyimino)acetamide]-3-(2-amino-1,3,4-thiadiazol-5-ylthiomethyl)isocephem-4-carboxylic acid] | 0.1 (≈ 0.153 µM) | 0.05 (≈ 0.0765 µM) | 0.05 (≈ 0.0765 µM) | 0.2 (≈ 0.306 µM) | 0.78 (≈ 1.19 µM) | 50 (≈ 76.5 µM) | 0.05 (≈ 0.0765 µM) |  | 0.05 (≈ 0.0765 µM) | 
Nc1nc(/C(=N/OCc2cc(=O)c(O)cn2O)C(=O)N[C@@H]2C(=O)N3C(C(=O)O)=C(CSc4nnnn4CCO)SC[C@H]23)cs1 [No. 11, (6S,7S)-7-[(Z)-2-(2-aminothiazol-4-yl)-2-(1,5-dihydroxy-4-pyridone-2-ylmethoxyimino)acetamide]-3-[1-(2-hydroxyethyl)-1H-tetrazole-5-ylthiomethyl]isocephem-4-carboxylic acid] | 0.05 (≈ 0.075 µM) | 0.012 (≈ 0.018 µM) | 0.012 (≈ 0.018 µM) | 0.05 (≈ 0.075 µM) | 0.2 (≈ 0.3 µM) | 50 (≈ 75 µM) | 0.05 (≈ 0.075 µM) |  | 0.024 (≈ 0.036 µM) | 
Nc1nc(/C(=N/OCc2cc(=O)c(O)cn2O)C(=O)N[C@@H]2C(=O)N3C(C(=O)[O-])=C(CSc4cc[n+](CC(=O)O)cc4)SC[C@H]23)cs1 [No. 12, (6S,7S)-7-[(Z)-2-(2-aminothiazol-4-yl)-2-(1,5-dihydroxy-4-pyridone-2-ylmethoxyimino)acetamide]-3-[(1-carboxymethyl-4-pyridinio)thiomethyl]isocephem-4-carboxylate] | 0.1 (≈ 0.145 µM) | 0.05 (≈ 0.0725 µM) | ≤ 0.006 | 0.2 (≈ 0.29 µM) | 0.39 (≈ 0.565 µM) | 12.5 (≈ 18.1 µM) | 0.012 (≈ 0.0174 µM) |  | 0.1 (≈ 0.145 µM) | 
